Data on 13 compounds can be found in PMC5748531, “Antimycobacterial Activities of N-Substituted-Glycinyl 1H-1,2,3-Triazolyl Oxazolidinones and Analytical Method Development and Validation for a Representative Compound” (Scientia Pharmaceutica, 2017).

In brackets after ≈: the same amount, converted by molar mass.

Series [1] relates to Mtb H37Rv (SRI 1345). Nature of the series: MIC broth microdilution, Mtb H37Rv. Type of series: cell-based. The settings on record: Mycobacterium tuberculosis, 168 h, read-out: MIC H37Rv. On the technique in general: In broth dilution the organism is exposed to a series of concentrations in liquid medium.
A further series is described as follows: in vitro. The settings on record: mouse.
Series [2] relates to Mtb H37Rv (SRI 1345). Description: Low-oxygen recovery assay (LORA), non-replicating persistence. Type of series: cell-based, Mycobacterium tuberculosis. Particulars: 7 days anaerobic then 7 days ambient, 37 °C.
Series [3] relates to Mtb H37Rv, INH-R, RMP-R and OFX-R Mtb. Description: MIC screening, all Mtb strains tested. The settings on record: range over H37Rv. Type of series: cell-based, Mycobacterium tuberculosis.
The nature of series [4]: Drug cytotoxicity control plate assay (MTT cell proliferation). Particulars: mouse.
The format of series [5] is in vitro ADME. The settings on record: 90 min, 50 μg/mL. As to the method: Aliquots of 0.5 mL of plasma samples (calibration standards) were mixed with 200 μL aliquots of internal standard solution using appropriate concentration (10–90 μg/mL) for PH-189 concentrations. The samples were loaded unto solid phase extraction (SPE) cartridges on a vacuum 20 position extraction manifold (Waters). The cartridges were pre-conditioned with 1 mL of acetonitrile followed by 1 mL of water. The loaded cartridges were washed with 1 mL of acetonitrile and the analytes (PH-189 and internal standard) were eluted with acetonitrile into a 1.5 mL glass vials. The collected samples were filtered using Kinesis syringe membrane filters (Kinesis Ltd, St Neots, UK) (13 mm) and were used for injection and analysis. The PH-189/internal standard ratios were used to calculate calibration curve and to determine PH-189 concentration in human plasma after 90 min at 37 °C.
Accuracy and precision of the UHPLC method for PH-189 was evaluated by preparing six sets of PH-189 in blank human plasma within the concentration ranges of the calibration curve. Accuracy and precision were performed in triplicate using four concentration levels of 1, 10, 50, and 90 μg/mL. […] Freezer-stored samples were thawed, extracted, and analyzed as previously mentioned. […]

The subject of another series is S. aureus. The arrangement: method as in PMID 23811087. Particulars: S. aureus in vitro; cited from earlier work.
A short description of series [6]: Stock standard solution stability. Type of series: physicochemical. Particulars: 100 μg/mL in acetonitrile, refrigerator (4 °C). As to the method:
Stock standard solutions of PH-189 and indapamide as internal standard were separately prepared by dissolving 10 mg of the compounds in 100 mL of acetonitrile to give stock concentrations of 100 μg/mL. Working solutions of PH-189 and internal standard were prepared by diluting the stock solutions with acetonitrile to obtain concentrations of 10 μg/mL and 90 μg/mL. Stock solutions were stable for at least 5 weeks when stored in a refrigerator (4 °C).

Series [7] has as its system intracellular (macrophage) Mtb H37Rv (SRI 1345) in J774 cells. Nature of the series: Intracellular (macrophage) drug screening assay. Type of series: cell-based, Mycobacterium tuberculosis. Particulars: range at the three concentrations tested.
The subject of series [8] is Mtb H37Rv (SRI 1345). Description: Minimal bactericidal concentration (MBC). Type of series: cell-based. Particulars: Mycobacterium tuberculosis, read-out: MBC H37Rv.
Where [9] appears, read: Mycobacterium tuberculosis, H37RV, 168 h, read-out: LORA, lowest concentration that visually inhibits growth.
Setting [10] is: MTT % Viability (High Conc.), high conc., same as in macrophage assay.
The mark [11] stands for this setting: MTT % Viability (Low Conc.), low conc., same as in macrophage assay.
[12] abbreviates: MTT % Viability (Mid Conc.), mid conc., same as in macrophage assay.

`Cc1cn(CC2CN(c3ccc(N4CCN(C(=O)CNC(=O)c5ccc([N+](=O)[O-])o5)CC4)c(F)c3)C(=O)O2)nn1` (centres unmarked) [PH-145]: the MIC in the series on Mtb H37Rv (SRI 1345) [1] turned out to be 0.5 µM (≈ 0.278 µg/mL). Besides, the viability in “in vitro” (MTT % Viability (High Conc.)) amounted to 75%; in the series “in vitro” (MTT % Viability (Low Conc.)), 87%; in the series “in vitro” (MTT % Viability (Mid Conc.)) it was 93%.

Consider `CCOC(=O)CC(=O)NCC(=O)N1CCN(c2ccc(N3CC(Cn4cc(C)nn4)OC3=O)cc2F)CC1` (centres unmarked) [PH-150], for which the MIC with Mtb H37Rv (SRI 1345) [1] was 5.8 µM (≈ 3.08 µg/mL); in the series with Mtb H37Rv (SRI 1345) [2] (setting [9]), more than 58 µM. The figures for the viability in “in vitro” (MTT % Viability (High Conc.)), in “in vitro” (MTT % Viability (Low Conc.)) and in “in vitro” (MTT % Viability (Mid Conc.)) were 62%, 78% and 82%, respectively.

Turning to `Cc1cn(CC2CN(c3ccc(N4CCN(C(=O)CN)CC4)c(F)c3)C(=O)O2)nn1` (centres unmarked) [PH-151], the MIC was 5.8 µM (≈ 2.42 µg/mL) in the series on Mtb H37Rv (SRI 1345) [1] and more than 58 µM in the series on Mtb H37Rv (SRI 1345) [2] (setting [9]). For the same compound, the viability in the series “in vitro” (MTT % Viability (High Conc.)) was determined as 74%; in the series “in vitro” (MTT % Viability (Low Conc.)), 83%; in “in vitro” (MTT % Viability (Mid Conc.)), 87%.

Take `CC(=O)NCC(=O)N1CCN(c2ccc(N3CC(Cn4ccnn4)OC3=O)cc2F)CC1` (centres unmarked) [PH-165]: the MIC is 6.7 µM (≈ 2.98 µg/mL) with Mtb H37Rv (SRI 1345) [1] and more than 58 µM in the series on Mtb H37Rv (SRI 1345) [2] (setting [9]). Moreover, the viability in “in vitro” (MTT % Viability (High Conc.)) was 84%; in the series “in vitro” (MTT % Viability (Low Conc.)), 91%; in the series “in vitro” (MTT % Viability (Mid Conc.)), 87%.

As for `CCOC(=O)CC(=O)NCC(=O)N1CCN(c2ccc(N3CC(Cn4ccnn4)OC3=O)cc2F)CC1` (centres unmarked) [PH-169], the MIC in the series with Mtb H37Rv (SRI 1345) [1] was 2.9 µM (≈ 1.5 µg/mL). The figures for the viability in the series “in vitro” (MTT % Viability (High Conc.)), in “in vitro” (MTT % Viability (Low Conc.)) and in the series “in vitro” (MTT % Viability (Mid Conc.)) were 73%, 76% and 75%, respectively.

Take `NCC(=O)N1CCN(c2ccc(N3CC(Cn4ccnn4)OC3=O)cc2F)CC1` (centres unmarked) [PH-172]: the MIC is 3.6 µM (≈ 1.45 µg/mL) in the series on Mtb H37Rv (SRI 1345) [1]; more than 58 µM in the series with Mtb H37Rv (SRI 1345) [2] (setting [9]); more than 58 µM with Mtb H37Rv (SRI 1345) [2] (lowest concentration that visually inhibits growth, read-out: LORA). Besides, the viability amounted to 71% in the series “in vitro” (MTT % Viability (High Conc.)), 87% in the series “in vitro” (MTT % Viability (Low Conc.)) and 72% in the series “in vitro” (MTT % Viability (Mid Conc.)).

Regarding `Cc1cn(CC2CN(c3ccc(N4CCN(C(=O)CNC(=O)c5cc([N+](=O)[O-])cc([N+](=O)[O-])c5)CC4)c(F)c3)C(=O)O2)nn1` (centres unmarked) [PH-181], the MIC with Mtb H37Rv (SRI 1345) [1] is 3.3 µM (≈ 2.02 µg/mL). Further, in series [3], the “MIC value range against all Mtb strains tested” value lay in the range of 0.052 to 3.3 µM. The figures for the viability in series [4] (setting [10]), in series [4] (setting [11]) and in series [4] (setting [12]) were 39%, 91% and 88%, respectively.

Consider `Cc1cn(CC2CN(c3ccc(N4CCN(C(=O)CNC(=O)C(Cl)Cl)CC4)c(F)c3)C(=O)O2)nn1` (centres unmarked) [PH-182], for which the MIC with Mtb H37Rv (SRI 1345) [1] is 1.9 µM (≈ 1 µg/mL); in the series on Mtb H37Rv (SRI 1345) [2] (setting [9]) it was 0.015 to 5.7 µM (≈ 0.00793 to 3.01 µg/mL). The viability amounted to 87% in the series “in vitro” (MTT % Viability (High Conc.)), 84% in the series “in vitro” (MTT % Viability (Low Conc.)) and 90% in “in vitro” (MTT % Viability (Mid Conc.)).

In the case of `Cc1cn(CC2CN(c3ccc(N4CCN(C(=O)CNC(=O)c5cccnc5)CC4)c(F)c3)C(=O)O2)nn1` (centres unmarked) [PH-185], the MIC with Mtb H37Rv (SRI 1345) [1] lay within 5.7 to 11.5 µM (≈ 2.98 to 6.01 µg/mL). Besides, the viability in the series “in vitro” (MTT % Viability (High Conc.)) stood at 39%; in “in vitro” (MTT % Viability (Low Conc.)), 88%; in “in vitro” (MTT % Viability (Mid Conc.)) it was 94%.

On to `O=C(NCC(=O)N1CCN(c2ccc(N3CC(Cn4ccnn4)OC3=O)cc2F)CC1)c1ccc([N+](=O)[O-])o1` (centres unmarked) [PH-189], for which, in the series on Mtb H37Rv (SRI 1345) [1], the MIC stood at 0.5 µM (≈ 0.271 µg/mL). Also, in [5], the “average amount of PH-189 found in human plasma” value was 48.79 µg/mL. In addition, the “recovered from human plasma” value in [5] is reported as “more than 90%”. For the same compound, the “MIC value in the presence of 50% human plasma” value in the series with S. aureus was “remained unchanged”. In series [6], the “stock solutions stable for” value was “at least 5 weeks”. The viability in the series “in vitro” (MTT % Viability (High Conc.)) turned out to be 86%; in the series “in vitro” (MTT % Viability (Low Conc.)), 98%; in the series “in vitro” (MTT % Viability (Mid Conc.)), 88%.

Consider `O=C(NCC(=O)N1CCN(c2ccc(N3CC(Cn4ccnn4)OC3=O)cc2F)CC1)c1cc([N+](=O)[O-])cc([N+](=O)[O-])c1` (centres unmarked) [PH-193], for which the MIC with Mtb H37Rv (SRI 1345) [1] came to 1.7 µM (≈ 1.02 µg/mL). The “MIC value range against all Mtb strains tested” value in [3] is 0.052 to 3.3 µM. In addition, the figures for the viability in [4] (setting [10]), in series [4] (setting [11]) and in series [4] (setting [12]) were 74%, 100% and 100%, respectively.

For the compound `O=C(NCC(=O)N1CCN(c2ccc(N3CC(Cn4ccnn4)OC3=O)cc2F)CC1)c1cccnc1` (centres unmarked) [PH-195], the MIC in the series on Mtb H37Rv (SRI 1345) [1] turned out to be 3.9 µM (≈ 1.98 µg/mL). Also, the viability amounted to 71% in “in vitro” (MTT % Viability (High Conc.)), 100% in the series “in vitro” (MTT % Viability (Low Conc.)) and 100% in the series “in vitro” (MTT % Viability (Mid Conc.)).

`CO[C@H]1/C=C/O[C@@]2(C)Oc3c(C)c(O)c4c(O)c(c(/C=N/N5CCN(C)CC5)c(O)c4c3C2=O)NC(=O)/C(C)=C\C=C\[C@H](C)[C@H](O)[C@@H](C)[C@@H](O)[C@@H](C)[C@H](OC(C)=O)[C@@H]1C` [RMP, Rifampicin, reference compound]: the MIC with Mtb H37Rv (SRI 1345) [1] turned out to be 0.06 µM (≈ 0.0494 µg/mL); in the series on Mtb H37Rv (SRI 1345) [2] (Mycobacterium tuberculosis, H37RV, 168 h, lowest concentration that visually inhibits growth, read-out: LORA), 0.95 µM (≈ 0.782 µg/mL). In addition, the “Macrophage log reduction in Mtb, range” value in series [7] is on record as 1.62–2.43. The MBC in the series on Mtb H37Rv (SRI 1345) [8] worked out at 1.56 µM (≈ 1.28 µg/mL). Also, the viability in series [4] (uninfected J774 macrophages, MTT % Viability (High Conc.), high conc., same as in macrophage assay) was 84%; in [4] (uninfected J774 macrophages, MTT % Viability (Low Conc.), low conc., same as in macrophage assay) it was 92%; in series [4] (uninfected J774 macrophages, MTT % Viability (Mid Conc.), mid conc., same as in macrophage assay), 85%; in [4] (uninfected J774 macrophages, MTT percent cell viability, range, range at the three concentrations tested), 84 to 92%.

The viability is a per cent measure of how many cells are alive, often set against a control. Low readings indicate more harm to the cells, high ones less harm to the cells. As usually defined, the MBC is the smallest concentration meeting the test's criterion for killing.
